Consider 27 molecules from ChEMBL document CHEMBL1122139, “Importance of the aromatic ring in adrenergic amines. 7. Comparison of the stereoselectivity of norepinephrine N-methyltransferase for aromatic vs. nonaromatic substrates and inhibitors” (J Med Chem, 1982).

Several values for one entry are separate records, joined by “and”; a condition that tells them apart may be missing. Identical values can stand only once.

The nature of series [1]: Vmax value was calculated in terms of nmoles of product per mg of protein per minute.
A short description of series [2]: Vmax/Km x100 value of the compound.
The target of series [3] is T1, Phenylethanolamine N-methyltransferase (Bos taurus, UniProt P10938).
T1 sequence (P10938 whole entry): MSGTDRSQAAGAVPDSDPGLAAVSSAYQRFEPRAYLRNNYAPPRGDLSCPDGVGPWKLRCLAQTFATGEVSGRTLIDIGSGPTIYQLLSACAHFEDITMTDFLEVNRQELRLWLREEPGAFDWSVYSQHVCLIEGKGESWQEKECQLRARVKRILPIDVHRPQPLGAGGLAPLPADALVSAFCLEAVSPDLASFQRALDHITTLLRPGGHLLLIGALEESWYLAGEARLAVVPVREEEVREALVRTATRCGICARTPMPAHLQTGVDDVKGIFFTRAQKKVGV
Kind of series: (§1) Inhibitory activity against Norepinephrine N-methyl-transferase of bovine adrenal glands. The format is tissue-based, Adrenal gland.

Compound in series [4]: NCC(O)C1CCCCCCC1
The description is as §1. The format is tissue-based. Conditions: Adrenal gland.

Compound in series [5]: NC[C@@H](O)C1CCCCC1
The description is as §1. The format is tissue-based. The following applies: Adrenal gland.

Compound in series [6]: NC[C@@H](O)C1CCCCCCC1
Described as §1. The class given is tissue-based. Conditions: Adrenal gland.

Compound in series [7]: NC[C@@H](O)c1ccccc1
The series is described as §1. The format is tissue-based. Conditions: Adrenal gland.

Compound in series [8]: NC[C@H](O)C1CCCCC1
The series is described as §1. The class given is tissue-based. Conditions: Adrenal gland.

Compound in series [9]: NC[C@H](O)C1CCCCCCC1
Described as §1. The class given is tissue-based. Conditions: Adrenal gland.

Compound in series [10]: NC[C@H](O)c1ccccc1
The description is as §1. The format is tissue-based. Conditions: Adrenal gland.

The Vmax is the rate approached at saturating substrate. With `NCC(O)C1CCCCCCC1` (configuration not stated), the Vmax in series [1] was 0.27 nmol/min/mg. In addition, the Vmax/Km x100 in [2] came out at 0.62.

Broadly, the Ki is the dissociation constant of the complex between target and ligand, obtained from inhibition or displacement. Read a low Ki as higher affinity. The molecule `C[C@@H](N)C1CCCCC1` gave a Ki in series [3] of 412 µM.

Turning to `NC[C@H](O)C1CCCCC1`, the maximum rate (Vmax) in [1] is 1.85 nmol/min/mg. Also, the Vmax/Km x100 in series [2] was 2.43.

In turn, `CC(N)c1ccccc1` (configuration not stated) displayed a Ki in series [3] of 460 µM.

`C[C@@H](N)CC1CCCCC1`: the inhibitory constant (Ki) in [3] stood at 290 µM.

In turn, `CC(N)CC1CCCCCCC1` (configuration not stated) displayed a Ki in [3] of 86 µM.

`NC[C@@H](O)C1CCCCCCC1`: in [1], the Vmax was 0.27 nmol/min/mg. The Vmax/Km x100 in series [2] worked out at 0.67.

For the molecule `CC(N)CC1CC=CCC1` (configuration not stated), in series [3], the Ki is 110 µM.

`C[C@H](N)C1CCCCC1` registered a Ki in series [3] of 44 µM.

For `NCCc1ccccc1` [PHENETHYLAMINE], the affinity in [3], expressed as Ki, was 467 µM.

Take `NC[C@@H](O)c1ccccc1` (stereo in doubt; 9b): the maximum rate (Vmax) in series [1] was 0.92 nmol/min/mg. In addition, the Vmax/Km x100 in series [2] worked out at 0.93.

The molecule `CC(N)Cc1ccccc1` (configuration not stated) [AMPHETAMINE] displayed a Ki in [3] of 740 µM.

Regarding `NCCC1CCCCC1`, the Ki in series [3] worked out at 41 µM.

In [3], `C[C@H](N)c1ccccc1` gave an inhibition constant Ki of 149 µM.

Take `NC[C@H](O)C1CCCCCCC1`: the maximal velocity (Vmax) in series [1] was 0.38 nmol/min/mg. Moreover, the Vmax/Km x100 in series [2] was determined as 0.88.

The molecule `C[C@H](N)CC1CCCCC1` displayed an inhibition constant Ki in series [3] of 22 µM.

Consider `C[C@H](N)Cc1ccccc1` (stereo in doubt; 1b) [DEXTROAMPHETAMINE], for which the Ki in series [3] worked out at 422 µM.

On to `C[C@H](N)CC1CCCCCCC1`, for which the Ki in series [3] was 34 µM.

In turn, `C[C@@H](N)c1ccccc1` registered a Ki in series [3] of 1680 µM.

Take `NC[C@@H](O)C1CCCCC1`: in [1], the maximal velocity (Vmax) was 0.64 nmol/min/mg. In series [2], the Vmax/Km x100 came out at 1.88.

On to `NC[C@H](O)c1ccccc1`, for which, in series [1], the maximal velocity (Vmax) is 4.85 nmol/min/mg. Besides, the Vmax/Km x100 in [2] was determined as 1.69.

Molecule `CC(N)CC1CCCCC1` (configuration not stated) gave an inhibitory constant (Ki) in series [3] of 109 µM.

`NCC(O)C1CCCCC1` (configuration not stated): the Vmax in series [1] was 0.99 nmol/min/mg. In series [2], the Vmax/Km x100 was 2.47.

The molecule `C[C@@H](N)CC1CCCCCCC1` came in with a Ki in series [3] of 157 µM.

With `NC[C@@H](O)c1ccccc1` (stereo in doubt; 9a), in [1], the maximum rate (Vmax) is 1.75 nmol/min/mg. For the same molecule, the Vmax/Km x100 in series [2] came to 1.62.

Molecule `C[C@H](N)Cc1ccccc1` (stereo in doubt; 1c) [DEXTROAMPHETAMINE] showed a Ki in [3] of 1380 µM.

B1: Phenylethanolamine N-methyltransferase (Bos taurus), P10938 (protein)
chain: T1 sequence (P10938 whole entry)
For orientation: Km means the concentration of substrate that gives half-maximal velocity. With B1, the Michaelis-Menten constant (Km) in [4] was 43 µM; in series [5], 34 µM; in series [6], 40 µM; in series [7], 96 µM and 108 µM; in [8] it was 76 µM; in series [9], 43 µM. Also, in series [10], the Michaelis constant (Km) was determined as 286 µM.
